Reference: patent US10676744B2, “Modulation of adipose tissue macrophage phenotype by use of MicroRNA-30” (University of South Carolina, priority 2017, dated 2020)

Columns and labels:
Assay type in all cases: cell-based, mice
[1] = system: miRs-30a-5p, -30c-5p, and -30e-5p; assay: In vitro LNA transfection assay in conditioned BMDM: miR-30 expression; conditions: BMDM in CM-3T3-L1A, LNA-transfected; relative to Mock and control LNA (Ctr LNA)
Method: ATMs were lysed in Qiazol and total RNA was purified using Qiagen miRNeasy Microkit. RNA concentration and purity were measured using a NanoDrop 2000 spectrophotometer. 400 ng total RNA was reverse transcribed to cDNA using Qiagen miScript II RT kit with HiFlex buffer. To validate miRNA expression by qRT-PCR, miScript SYBR Green PCR kit and miScript miRNA Primer Assays were used (Qiagen).
(§1) Bone marrow derived macrophages (BMDM) were differentiated from bone marrow cells (BMC) by flushing the tibia and femur of 6-8 week old female C57Bl/6J mice with PBS. BMCs were filtered through a 70 μm nylon mesh, RBC-lysed, and washed, then cultured in complete DMEM/F12 supplemented with 10% FBS, 1% penicillin/streptomycin, 2 mM L-glutamine, and 1 U/mL M-CSF (BioLegend, 576406) for 7-10 days. 3T3-L1 adipocyte-conditioned media (CM-3T3-L1A) was generated by differentiating 3T3-L1 preadipocytes into adipocytes according to the Zen-Bio 3T3-L1 Adipocyte Care Manual (ZBM0009.03). Preadipocyte medium, differentiation medium, and adipocyte maintenance medium were also used (Zen-Bio, PM-1-L1, DM-2-L1, AM-1-L1). Conditioned medium was collected between days 7 and 14 post-differentiation, 0.22 μm filtered, aliquoted, and stored at −80° C. until use. For transfection assays, mature BMDM were plated in poly-D-lysine-coated 6-well plates at a density of 5×10^5 cells in 2 ml CM-3T3-L1A containing 10% FBS without antibiotics. BMDM were incubated 24 h (37° C., 5% CO2, 95% humidity) before transfection. Transfection complexes were prepared by diluting Lipofectamine3000 and LNA in Opti-MEM to final concentrations of 2% (v/v) and 0.32 μM respectively. Mixtures were incubated 15-20 m at RT to allow complexes to form. Meanwhile, conditioned BMDM were washed 3× in pre-warmed Dulbecco's PBS (DPBS), then media replaced with 2 mL Opti-MEM. 5004 transfection complexes were added drop-wise to each well. […]

DLL4 = assay: In vitro LNA transfection assay in BMDM: DLL4 in culture supernatants by ELISA; conditions: LNA-transfected BMDM; compared to Mock and Ctr LNA; harvested at 48 h
Method: (§2) FIG. 3A schematically illustrates an in vitro experimental timeline during which differentiated bone marrow-derived microphages (BMDM) were incubated in conditioned medium from 3T3-L1 adipocytes (CM-3T3-L1A) prior to transfection with microRNA inhibitor locked nucleic acids (LNA) and subsequent culture. Cells and supernatants were harvested at 48 h.
FIG. 3B presents the amounts of DLL4 detected in culture supernatants by ELISA during the in vitro experiments.
as §1, with “form.” for “form. Meanwhile, conditioned BMDM were washed 3× in pre-warmed Dulbecco's PBS (DPBS), then media replaced with 2 mL Opti-MEM. 5004 transfection complexes were added drop-wise to each well.”
Culture supernatants were aspirated and centrifuged 5000 RPM, 5 m, 4° C. to rid of debris then aliquoted and stored −80° C. before assaying. […] Assays were performed according to manufacturer protocols and plates were read at 450 nm. Concentrations were calculated using standard curves.

[2] = system: Notch1 intracellular domain (N1ICD); assay: In vitro LNA transfection assay in BMDM: Western blot of cleaved/activated Notch1; conditions: LNA-transfected BMDM, compared to Mock and Ctr LNA
Method: as §2
FIG. 3C presents Western blot results of cleaved/activated Notch1 (N1ICD) during the in vitro experiments. Fold induction relative to Mock is represented below each lane.
as §1

CD11c = assay: In vitro LNA transfection assay in BMDM: CD11c surface expression by flow cytometry; conditions: DAPT (5 uM) added to culture media of transfected BMDM
Method: as §2
FIG. 3F presents flow cytometry histograms of CD11c expression in the transfected BMDM. For FIG. 3B-FIG. 3F, values are presented as mean±SEM and are from a single experiment representative of 2-3 independent experiments.
FIG. 3G presents the percentage increase in CD11c+ macrophages during the in vitro experiments.
Freshly isolated SVF cells or cultured BMDM were washed in FACS buffer then incubated on ice with FcR-Blocker for 10 m followed by appropriate fluorochrome-conjugated antibodies or isotype controls (BioLegend, anti-CD11b-AlexaFluor488 clone: M1/70, anti-F4/80-PE clone: BM8, anti-DLL4-APC clone: HMD4-1, anti-CD45-PECy7 clone: 30-F11, anti-CD11c-APC clone: N418) for 50 m. Stained cells were washed 3× in FACS buffer then analyzed on a Beckman Coulter FC500 or BD FACSCelesta flow cytometer. Plots were analyzed with Beckman Coulter CXP Software or FlowJo v10.
Bone marrow derived macrophages (BMDM) were differentiated from bone marrow cells (BMC) by flushing the tibia and femur of 6-8 week old female C57Bl/6J mice with PBS. […]

Compound | expression of miRs-30a-5p, -30c-5p, and -30e-5p [1] | DLL4 expression (culture supernatants, ELISA) (DLL4) | activated Notch1 intracellular domain (N1ICD) expression [2] | induction of CD11c in miR-30 inhibitor-transfected cells (CD11c)
Anti-30a: miRNA inhibitor locked nucleic acid (MirCURY LNA, Exiqon) targeting miR-30a-5p; SEQ ID NO: 2 TTCCAGTCGAGGATGTTTAC (LNA-modified miRCURY inhibitor, LNA positions and linkages not given here) | decreased expression | increased | increased | –
Anti-30c: miRNA inhibitor locked nucleic acid (MirCURY LNA, Exiqon) targeting miR-30c-5p; SEQ ID NO: 3 CTGAGAGTGTAGGATGTT (LNA-modified miRCURY inhibitor, LNA positions and linkages not given here) | decreased expression | increased | increased | –
C[C@H](NC(=O)Cc1cc(F)cc(F)c1)C(=O)N[C@H](C(=O)OC(C)(C)C)c1ccccc1 [DAPT] | – | – | – | reduced induction
Anti-30e: miRNA inhibitor locked nucleic acid (MirCURY LNA, Exiqon) targeting miR-30e-5p; SEQ ID NO: 4 TCCAGTCAAGGATGTTTAC (LNA-modified miRCURY inhibitor, LNA positions and linkages not given here) | decreased expression | increased | increased | –
